Data: patent US20090264415A2 (priority 2004, published 2009)
Read-outs that look alike come from different tables or passages of the source.

Tested on: peripheral blood mononuclear cells (PBMC) stimulated with allogeneic PBMC or EBV-transformed human B cells (RPMI1788)
Test: Mixed lymphocyte reaction (MLR) assay
Type: cell-based
Description: Pyrido[3,2-d]pyrimidine derivatives were first dissolved (10 mM) in dimethyl-sulfoxide (hereinafter referred as DMSO) and further diluted in culture medium before use for the following in vitro experiments. […] Some pyrido[3,2-d]pyrimidine derivatives described herein were tested in the following mixed lymphocyte reaction (MLR) assay.
Peripheral blood mononuclear cells (hereinafter referred as PBMC) were isolated from heparinized peripheral blood by density gradient centrifugation over Lymphoprep (Nycomed, Maorstua, Norway). Allogeneic PBMC or Eppstein-Barr Virus-transformed human B cells [commercially available under the trade name RPM11788 (ATCC name CCL156)] which strongly express B7-1 and B7-2 antigens were used as stimulator cells after irradiation with 30 Gy. MLR was performed in triplicate wells. After 5 days incubation at 37° C., 1 μCi [^3H]-thymidine was added to each cup. After a further 16 hours incubation, cells were harvested and counted in a β-counter. Inhibition of proliferation by a compound described in some of the present examples was counted while using the formula: [formula] wherein cpm is the thymidine count per minute. The MLR assay is regarded by those skilled in the art as an in vitro analogue of the transplant rejection since it is based on the recognition of allogeneic major histocompatibility antigens on the stimulator leukocytes, by responding lymphocytes.

[1] = Homo sapiens, RPMI-1788, 50% suppression of the MLR, [3H]-thymidine incorporation, read-out: MLR
[2] = Homo sapiens, RPMI-1788, MLR assay of example 319, read-out: MLR IC50

`Nc1nc(N2CCN(C(=O)NCc3ccc(Cl)cc3)CC2)c2nc(-c3ccc(F)cc3)ccc2n1` [Example 189, 2-amino-4-[(N-4-chloro-benzylcarbamoyl)-piperazin-1-yl]-6-(4-fluorophenyl)-pyrido[3,2-d]pyrimidine] was tested. Which IC50 [1] did it give?
The IC50 was 500 nM.

`Nc1nc(N2CCN(C(=O)c3ccco3)CC2)c2nc(-c3ccc4c(c3)OCO4)ccc2n1` [Example 192, 2-amino-4-[N-(2-furoyl)-piperazin-1-yl]-6-(3,4-methylenedioxyphenyl)-pyrido[3,2-d]pyrimidine] was tested. Which IC50 [1] did it give?
Its IC50 is 8100 nM.

For `Nc1nc(N2CCN(C(=O)c3ccco3)CC2)c2nc(-c3ccc4c(c3)OCCO4)ccc2n1` [Example 203, 2-amino-4-[N-(2-furoyl)-piperazin-1-yl]-6-(1,4-benzo-dioxane)-pyrido[3,2-d]pyrimidine], which IC50 [1] is on record?
The IC50 was 5700 nM.

How did the IC50 [1] turn out when `Nc1nc(N2CCN(c3ccc(F)cc3)CC2)c2nc(-c3ccc(F)cc3)ccc2n1` [Example 204, 2-amino-4-[N-(4-fluoro-phenyl)-piperazin-1-yl]-6-(4-fluorophenyl)-pyrido[3,2-d]pyrimidine] was run?
The IC50 was 6400 nM.

`Nc1nc(N2CCN(CCOc3ccccc3)CC2)c2nc(-c3ccc(F)cc3)ccc2n1` [Example 205] was tested. Which IC50 (50% suppression of the MLR, [3H]-thymidine incorporation, read-out: MLR) did it give?
Its IC50 is 5500 nM.

How did the IC50 [1] turn out when `COc1ccc(-c2ccc3nc(N)nc(N4CC[C@H](NC(=O)Nc5cccc(C)c5)C4)c3n2)cc1OC` [Example 221] was run?
The IC50 was 1300 nM.

How did the IC50 [1] turn out when `Nc1nc(N2CCOCC2)c2nc(Cl)ccc2n1` [Example 230, 2-amino-6-chloro-4-morpholino-pyrido[3,2-d]pyrimidine] was run?
The IC50 was > 10000 nM.

With `COc1cccc(-c2ccc3nc(N)nc(N4CCOCC4)c3n2)n1` [Example 236, 2-amino-4-morpholino-6-(6-methoxy-2-pyridinyl)-pyrido[3,2-d]pyrimidine] as the compound, how does the IC50 [1] read?
Its IC50 is 5300 nM.

With `Nc1nc(N2CCOCC2)c2nc(-c3ccc(F)c(Cl)c3)ccc2n1` [Example 242, 2-amino-4-morpholino-6-(3-chloro-4-fluorophenyl)-pyrido[3,2-d]pyrimidine] as the compound, how does the IC50 [1] read?
The IC50 was 2600 nM.

Which IC50 [1] does the source give for `Nc1nc(N2CCOCC2)c2nc(-c3ccc(F)cc3)ccc2n1` [Example 245, 2-amino-4-morpholino-6-(4-fluorophenyl)-pyrido[3,2-d]pyrimidine] here?
The IC50 was 2300 nM.

How did the IC50 [1] turn out when `COc1ccc(-c2ccc3nc(N)nc(N)c3n2)cc1OC` [Example 256, 2,4-diamino-6-(3,4-dimethoxyphenyl)-pyrido[3,2-d]pyrimidine] was run?
Its IC50 is 600 nM.

How did the IC50 [1] turn out when `COc1ccc(-c2ccc3nc(N)nc(N4CC[C@@H](NC(=O)Nc5cccc(C)c5)C4)c3n2)cc1OC` [Example 260] was run?
Its IC50 is 2100 nM.

How did the IC50 [1] turn out when `COc1ccc(-c2ccc3nc(N)nc(N4CCC(O)(c5ccc(Cl)cc5)CC4)c3n2)cc1OC` [Example 269, 2-amino-4-(4-chlorophenyl-4-hydroxypiperidin-1-yl)-6-(3,4-dimethoxyphenyl)-pyrido[3,2-d]pyrimidine] was run?
Its IC50 is 3100 nM.

Which IC50 [2] does the source give for `Nc1nc(N2CCN(C(=O)COc3ccc4ccccc4c3)CC2)c2nc(-c3ccc(F)cc3)ccc2n1` [Example 383, 2-amino-4-[4-(2-naphthoxyacetyl)piperazin-1-yl]-6-(4-fluorophenyl)-pyrido[3,2-d]pyrimidine] here?
Its IC50 is 500 nM.

With `Cc1cccc(OCC(=O)N2CCN(c3nc(N)nc4ccc(-c5ccc(F)cc5)nc34)CC2)c1` [Example 384, 2-amino-4-[4-(3-methylphenoxyacetyl)piperazin-1-yl]-6-(4-fluorophenyl)-pyrido[3,2-d]pyrimidine] as the compound, how does the IC50 [2] read?
Its IC50 is 50 nM.

Which IC50 [2] does the source give for `Nc1nc(N2CCN(C(=O)COc3cccc(Cl)c3)CC2)c2nc(-c3ccc(F)cc3)ccc2n1` [Example 385, 2-amino-4-[4-(3-chlorophenoxyacetyl)piperazin-1-yl]-6-(4-fluorophenyl)-pyrido[3,2-d]pyrimidine] here?
Its IC50 is 90 nM.

With `Nc1nc(N2CCN(C(=O)COc3ccc(Cl)cc3Cl)CC2)c2nc(-c3ccc(F)cc3)ccc2n1` [Example 386, 2-amino-4-[4-(2,4-dichlorophenoxyacetyl)piperazin-1-yl]-6-(4-fluorophenyl)-pyrido[3,2-d]pyrimidine] as the compound, how does the IC50 [2] read?
Its IC50 is 400 nM.

Which IC50 [2] does the source give for `Nc1nc(N2CCN(C(=O)COc3ccc(F)cc3)CC2)c2nc(-c3ccc(F)cc3)ccc2n1` [Example 387, 2-amino-4-[4-(4-fluorophenoxyacetyl)piperazin-1-yl]-6-(4-fluorophenyl)-pyrido[3,2-d]pyrimidine] here?
The IC50 was 200 nM.

With `Nc1nc(N2CCN(C(=O)COc3ccc(Br)cc3)CC2)c2nc(-c3ccc(F)cc3)ccc2n1` [Example 388, 2-amino-4-[4-(4-bromophenoxyacetyl)piperazin-1-yl]-6-(4-fluorophenyl)-pyrido[3,2-d]pyrimidine] as the compound, how does the IC50 [2] read?
The IC50 was 50 nM.

For `COc1ccc(-c2ccc3nc(N)nc(N4CCN(C(=O)CC(C)(C)C)CC4)c3n2)cc1OC` [Example 392, 2-amino-4-[4-(3,3-dimethylbutyryl)piperazin-1-yl]-6-(3,4-dimethoxyphenyl)-pyrido[3,2-d]pyrimidine], which IC50 [2] is on record?
The IC50 was 300 nM.

How did the IC50 [2] turn out when `C=CC(=O)N1CCN(c2nc(N)nc3ccc(-c4ccc(OC)c(OC)c4)nc23)CC1` [Example 393, 2-amino-4-[4-(2-propenoyl)piperazin-1-yl]-6-(3,4-dimethoxyphenyl)-pyrido[3,2-d]pyrimidine] was run?
The IC50 was 400 nM.

How did the IC50 [2] turn out when `COc1ccc(-c2ccc3nc(N)nc(N4CCN(C(=O)CNC(=O)OC(C)(C)C)CC4)c3n2)cc1OC` [Example 396, 2-amino-4-{4-[N-(tert-butoxycarbonyl)-glycyl]-piperazin-1-yl}-6-(3,4-di-methoxyphenyl)-pyrido[3,2-d]pyrimidine] was run?
Its IC50 is 50 nM.

`Nc1nc(N2CCN(C(=O)COc3ccc(Cl)cc3)CC2)c2nc(-c3ccc(C(F)(F)F)cc3)ccc2n1` [Example 399, 2-amino-4-[4-(4-chlorophenoxyacetyl)piperazin-1-yl]-6-(4-trifluoromethylphenyl)-pyrido[3,2-d]pyrimidine] was tested. Which IC50 [2] did it give?
Its IC50 is 500 nM.

For `N#Cc1ccc(-c2ccc3nc(N)nc(N4CCN(C(=O)COc5ccc(Cl)cc5)CC4)c3n2)cc1` [Example 400, 2-amino-4-[4-(4-chlorophenoxyacetyl)piperazin-1-yl]-6-(4-cyanophenyl)pyrido-[3,2-d]pyrimidine], which IC50 [2] is on record?
The IC50 was 50 nM.

Which IC50 [2] does the source give for `Nc1nc(N2CCN(C(=O)COc3ccc(Cl)cc3)CC2)c2nc(-c3cccc(F)c3)ccc2n1` [Example 401, 2-amino-4-[4-(4-chlorophenoxyacetyl)piperazin-1-yl]-6-(3-fluorophenyl)pyrido-[3,2-d]pyrimidine] here?
Its IC50 is 300 nM.

Which IC50 [2] does the source give for `Nc1nc(N2CCN(C(=O)COc3ccc(Cl)cc3)CC2)c2nc(-c3ccoc3)ccc2n1` [Example 402, 2-amino-4-[4-(4-chlorophenoxyacetyl)piperazin-1-yl]-6-(furan-3-yl)pyrido-[3,2-d]pyrimidine] here?
Its IC50 is 30 nM.

`Nc1nc(N2CCN(C(=O)COc3ccc(Cl)cc3)CC2)c2nc(-c3ccsc3)ccc2n1` [Example 403, 2-amino-4-[4-(4-chlorophenoxyacetyl)piperazin-1-yl]-6-(thiophen-3-yl)pyrido-[3,2-d]pyrimidine] was tested. Which IC50 [2] did it give?
The IC50 was 40 nM.

With `Nc1nc(N2CCN(C(=O)COc3ccc(Cl)cc3)CC2)c2nc(-c3ccc(F)c(F)c3)ccc2n1` [Example 404, 2-amino-4-[4-(4-chlorophenoxyacetyl)piperazin-1-yl]-6-(3,4-difluorophenyl)pyrido-[3,2-d]pyrimidine] as the compound, how does the IC50 [2] read?
Its IC50 is 40 nM.

Which IC50 [2] does the source give for `Nc1nc(N2CCN(C(=O)COc3ccc(Cl)cc3)CC2)c2nc(-c3ccc(Cl)cc3)ccc2n1` [Example 405, 2-amino-4-[4-(4-chlorophenoxyacetyl)piperazin-1-yl]-6-(4-chlorophenyl)pyrido-[3,2-d]pyrimidine] here?
Its IC50 is 50 nM.

`Nc1nc(N2CCN(C(=O)COc3ccc(Cl)cc3)CC2)c2nc(-c3cccc(Cl)c3)ccc2n1` [Example 406, 2-amino-4-[4-(4-chlorophenoxyacetyl)piperazin-1-yl]-6-(3-chlorophenyl)pyrido-[3,2-d]pyrimidine] was tested. Which IC50 [2] did it give?
The IC50 was 70 nM.

How did the IC50 [2] turn out when `Nc1nc(N2CCN(C(=O)COc3ccc(Cl)cc3)CC2)c2nc(-c3ccncc3)ccc2n1` [Example 407, 2-amino-4-[4-(4-chlorophenoxyacetyl)piperazin-1-yl]-6-(pyridin-4-yl)pyrido-[3,2-d]pyrimidine] was run?
Its IC50 is 5 nM.

How did the IC50 [2] turn out when `Nc1nc(N2CCN(C(=O)COc3ccc(Cl)cc3)CC2)c2nc(-c3ccc(F)c(Cl)c3)ccc2n1` [Example 408, 2-amino-4-[4-(4-chlorophenoxyacetyl)piperazin-1-yl]-6-(3-chloro-4-fluorophenyl)-pyrido-[3,2-d]pyrimidine] was run?
Its IC50 is 200 nM.

Which IC50 [2] does the source give for `Nc1nc(N2CCN(C(=O)COc3ccc(Cl)cc3)CC2)c2nc(-c3cccnc3)ccc2n1` [Example 409, 2-amino-4-[4-(4-chlorophenoxyacetyl)piperazin-1-yl]-6-(pyridin-3-yl)pyrido-[3,2-d]pyrimidine] here?
The IC50 was 5 nM.

With `COc1ccc(-c2ccc3nc(N)nc(N4CCN(C(=O)COc5ccc(Cl)cc5)CC4)c3n2)cn1` [Example 410, 2-amino-4-[4-(4-chlorophenoxyacetyl)piperazin-1-yl]-6-(2-methoxypyridin-5-yl)pyrido-[3,2-d]pyrimidine] as the compound, how does the IC50 [2] read?
The IC50 was 9 nM.

`Cc1noc(C)c1-c1ccc2nc(N)nc(N3CCN(C(=O)COc4ccc(Cl)cc4)CC3)c2n1` [Example 411, 2-amino-4-[4-(4-chlorophenoxyacetyl)piperazin-1-yl]-6-(3,5-dimethylisoxazol-4-yl)pyrido-[3,2-d]pyrimidine] was tested. Which IC50 [2] did it give?
The IC50 was 34 nM.
